Experimental data reported in US20210255184A1, “Biosensor Device and Methods” (The New Zealand Institute for Plant and Food Research …, priority 2018, published 2021).

Experiments:
[1] = EIS sensor, empty liposomes (specificity control); assay type: biochemical; conditions: empty liposomes without receptor
Method: PBS solution was prepared by immersing one tablet of PBS in 200 ml of milli-Q water (according to manufacturers instructions) and filtered using 0.2-μm syringe filter. The pH of the prepared buffer solution was measured with a pH meter. OrX liposomes or OrX/Orco liposomes were diluted 100 fold in PBS buffer solution (pH=7.4) and the COOH-activated electrodes were incubated in that buffer solution at room temperature for one hour. Then, the electrodes were washed extensively with PBS buffer solution to wash out any unbound liposomes.
PBS (pH=7.4) was used as an electrolyte to conduct electrochemical measurements. PBS buffer was degassed for about 30 minutes prior to electrochemical measurements. Odorant solutions of concentration ranging from 1 aM to 1 μM were prepared by sequential dilution in PBS solution containing 1% DMSO. OR immobilized electrodes were incubated in relevant odorant solution for ˜30 minutes each and washed gently with PBS before EIS measurements.
EIS measurements were done in a 3 electrode cell containing Ag/AgCl (3 M NaCl, 0.209 V vs. SHE) reference electrode, coiled platinum wire as a counter electrode and the gold disk as a working electrode at a fixed voltage of −0.7 using PalmSens potentiostat. Degassed PBS was used as an electrolyte.
EIS measurements were performed on gold electrodes functionalised with OrX liposomes (either Or10a or Or22a), OrX/Orco liposomes, or empty liposomes prior to and after target ligand or control ligand incubation with increasing concentrations (1 aM to 100 μM). Dose response curves were obtained by defining sensor response as −(ΔRp/R^op) versus log[C(Ligand)]. FIG. 4a presents the EIS response in terms of Nyquist plot for the Or10a liposome functionalized sensors when exposed to a solution containing one of the known target ligands of Or10a, methyl salicylate, at various concentrations. […] The dose response curve (FIG. 4b) was obtained by plotting the change in polarization resistance −(ΔRp/R^op) versus log[conc(Ligand)], as the sensor response. […]

Orco = biological target: T1, Orco (Drosophila melanogaster, UniProt Q9VNB5); experiment: GFET sensor, Orco liposomes (control); assay type: biochemical; conditions: Orco only liposomes
T1 construct: his-tag; made in house; host or cells: baculovirus-infected Sf9 cells
T1 sequence (Q9VNB5 1-486): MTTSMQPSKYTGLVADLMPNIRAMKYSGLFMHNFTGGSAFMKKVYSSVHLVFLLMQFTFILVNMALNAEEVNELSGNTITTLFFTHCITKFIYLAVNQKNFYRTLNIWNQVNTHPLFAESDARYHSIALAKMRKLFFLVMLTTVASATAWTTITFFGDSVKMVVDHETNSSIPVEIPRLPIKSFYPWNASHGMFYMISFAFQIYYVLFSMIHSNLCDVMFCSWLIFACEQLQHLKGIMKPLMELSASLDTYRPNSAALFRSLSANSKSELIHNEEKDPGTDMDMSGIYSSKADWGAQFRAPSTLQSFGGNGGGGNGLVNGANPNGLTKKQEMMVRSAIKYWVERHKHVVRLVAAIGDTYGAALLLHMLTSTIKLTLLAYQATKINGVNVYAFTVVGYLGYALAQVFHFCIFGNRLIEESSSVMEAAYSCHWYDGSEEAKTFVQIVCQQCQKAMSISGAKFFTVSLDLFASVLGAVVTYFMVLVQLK
Method: The OR liposomes were functionalised onto the graphene surface via a non-covalent route using PBASE as the molecular linker as shown in FIG. 13. The OR liposomes were diluted at 1:10 ratio with 1×PBS (pH7.4). The cleaned GFETs were immersed in 1 mM PBASE solution in methanol for 1 hour. The devices were washed three times in methanol and subsequently washed three times in 1×PBS to remove the excess PBASE and residual methanol in the channel respectively. The OR liposomes were diluted 1:10 with 1×PBS (pH 7.4) and 100 μL of the OR dilution was placed in the graphene channel and incubated at room temperature for one hour in a closed petri dish. After OR liposome functionalization, the devices were washed in 1×PBS for 10 s before measurements.
The OR liposome immobilised GFET device with a PDMS well mounted on it was placed onto the probe station and the source and drain connections were made by micromanipulators. 100 μl of PBS containing 1% dimethyl sulfoxide (DMSO) was added to the well and the Ag/AgCl standard electrode was placed into the buffer. The stock solution of ligands at 100 mM concentrations were prepared by dissolving them in DMSO as they are not stable in aqueous buffer. The stock solution was stored at 4° C. The ligand solution for sensing was prepared by diluting the stock solution in 1×PBS buffer containing 1% DMSO to set concentrations from 10 fM to 100 pM. […]

SMILES | sensor response to ligand [1] | sensor response to target ligand (Orco)
CCCCCC(=O)OC [methyl hexanoate] | negligible response | lack of response
COC(=O)c1ccccc1O [methyl salicylate] | negligible response | lack of response
